Five compounds from US4242510A, “Cephalosporin compounds and processes for the preparation thereof” (Fujisawa Pharmaceutical Co., Ltd., priority 1976, dated 1980) can be followed below.

Experiment in all cases: In vitro antibacterial activity, two-fold agar-plate dilution method
Holding throughout (type): cell-based

The subject of assay [1] is Pseudmonas aeruginose NCTC-10490. The settings on record: HI-agar, 37° C., 20 hours. On the procedure:
(§1) In vitro antibacterial activity was determined by the two-fold agar-plate dilution method as described below. One loopful of an overnight culture of each test strain in Trypticase-soy broth (approximately 10^6 viable cells per ml.) was streaked on heat infusion agar (HI-agar) containing graded concentrations of antibiotics, and the minimal inhibitory concentration (MIC) was expressed in terms of μg./ml. after incubation at 37° C. for 20 hours.

In the next assay the test system is Proteus mirabilis 525. The settings on record: HI-agar, 37° C., 20 hours. How it is done:
as §1

The subject of assay [2] is Staphylococcus aureus 209-P JC-1. Particulars: HI-agar, 37° C., 20 hours. How it is done: as §1
Assay [3] relates to Proteus vulgaris LAM-1025. Particulars: LAM1025, HI-agar, 37° C., 20 hours. How it is done:
as §1

The next assay deals with Esherichia coli 327. Particulars: HI-agar, 37° C., 20 hours. On the procedure: as §1

Structures are written as SMILES. Values after ≈ are worked out from the molar mass of the structure shown.

Broadly, the MIC is the least concentration at which growth counts as inhibited. High values mean a need for much substance, low ones inhibition by little substance. For `CON=C(C(=O)NC1C(=O)N2C(C(=O)O)=C(CSc3nnnn3C)CS[C@H]12)C1=CSCCO1` (some centres unmarked) [compound 2, 7-[2-(2,3-dihydro-1,4-oxathiin-6-yl)-2-methoxyiminoacetamido]-3-(1-methyl-1H-tetrazol-5-yl)thiomethyl-3-cephem-4-carboxylic acid], the MIC was determined as 12.5 µg/mL (≈ 24.3 µM) in assay [1]; 0.78 µg/mL (≈ 1.52 µM) against Proteus mirabilis 525; 3.13 µg/mL (≈ 6.09 µM) in assay [2]; 25 µg/mL (≈ 48.7 µM) in assay [3]; 0.2 µg/mL (≈ 0.389 µM) with Esherichia coli 327.
On to `CO/N=C(\C(=O)NC1C(=O)N2C(C(=O)O)=C(COC(C)=O)CSC12)C1=CSCCO1` (centres unmarked) [compound 1, 7-[2-(2,3-dihydro-1,4-oxathiin-6-yl)-2-methoxyiminoacetamido]cephalosporanic acid], for which the MIC in assay [1] stood at 25 µg/mL (≈ 54.6 µM); against Proteus mirabilis 525, 0.78 µg/mL (≈ 1.7 µM); in assay [2], 3.13 µg/mL (≈ 6.84 µM); in assay [3], 12.5 µg/mL (≈ 27.3 µM); against Esherichia coli 327 it was 0.78 µg/mL (≈ 1.7 µM).
As to `CON=C(C(=O)NC1C(=O)N2C(C(=O)O)=CCS[C@H]12)C1=CSCCS1` (some centres unmarked) [compound 5, 7-[2-(2,3-dihydro-1,4-dithiin-5-yl)-2-methoxyiminoacetamido]-3-cephem-4-carboxylic acid], the MIC in assay [1] worked out at 400 µg/mL (≈ 996 µM); in assay [2], 6.25 µg/mL (≈ 15.6 µM); in assay [3] it was 3.13 µg/mL (≈ 7.8 µM).
On to `CON=C(C(=O)NC1C(=O)N2C(C(=O)O)=C(CSc3nncs3)CS[C@H]12)C1=CSCCS1` (some centres unmarked) [compound 4, 7-[2-(2,3-dihydro-1,4-dithiin-5-yl)2-methoxyiminoacetamido]-3-(1,3,4-thiadiazol-2-yl)thiomethyl-3-cephem-4-carboxylic acid], for which the MIC was determined as 50 µg/mL (≈ 94 µM) in assay [1]; 3.13 µg/mL (≈ 5.89 µM) against Proteus mirabilis 525; 0.39 µg/mL (≈ 0.734 µM) in assay [2]; 6.25 µg/mL (≈ 11.8 µM) in assay [3]; 0.78 µg/mL (≈ 1.47 µM) in the assay on Esherichia coli 327.
With `CON=C(C(=O)NC1C(=O)N2C(C(=O)O)=C(COC(N)=O)CS[C@H]12)C1=CSCCO1` (some centres unmarked) [compound 3, 7-[2-(2,3-dihydro-1,4-oxathiin-6-yl)-2-methoxyiminoacetamido]-3-carbamoyloxymethyl-3-cephem-4-carboxylic acid], the MIC in assay [1] worked out at 50 µg/mL (≈ 109 µM); against Proteus mirabilis 525, 0.78 µg/mL (≈ 1.7 µM); in assay [2], 6.25 µg/mL (≈ 13.6 µM); in assay [3] it was 100 µg/mL (≈ 218 µM); against Esherichia coli 327, 0.78 µg/mL (≈ 1.7 µM).
